Legend:
[1] = target: T1, human sphingosine-1-phosphate receptor 1 (S1P1) (Homo sapiens (Human), UniProt P21453); assay: β-Arrestin2 recruitment assay (PathHunter), S1P1 CHO-K1 cells; type: cell-based; details: for hS1P1 B-arrestin2 pEC50: β-arrestin2 recruitment, S1P1 CHO-K1 cells; for Emax: CHO-K1, efficacy (SPAN) normalized to fingolimod, read-out: hS1P1 B-arrestin2 SPAN
In short: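 Enzyme-fragment complementation read-out: agonist-driven β-arrestin2 binding to ProLink-tagged human S1P1 in stable CHO-K1 cells restores β-galactosidase, measured 1 h at room temperature after a 60 min 37° C. compound incubation. Potency as pEC50, efficacy relative to fingolimod (SPAN).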
Target sequence in this assay (P21453 whole entry, looked up, the tested form may be a part): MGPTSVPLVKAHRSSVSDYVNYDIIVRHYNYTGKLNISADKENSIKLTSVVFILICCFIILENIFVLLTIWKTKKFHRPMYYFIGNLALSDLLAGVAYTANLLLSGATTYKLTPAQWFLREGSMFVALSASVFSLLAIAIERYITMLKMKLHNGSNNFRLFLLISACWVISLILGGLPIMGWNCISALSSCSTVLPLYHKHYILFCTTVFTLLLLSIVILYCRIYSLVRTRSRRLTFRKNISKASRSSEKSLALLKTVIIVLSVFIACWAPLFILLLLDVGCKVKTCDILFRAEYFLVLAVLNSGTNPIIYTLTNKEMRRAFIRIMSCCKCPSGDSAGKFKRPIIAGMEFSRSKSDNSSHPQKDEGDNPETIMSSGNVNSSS
Target sequence in this assay (P32121 whole entry partner, looked up, the tested form may be a part): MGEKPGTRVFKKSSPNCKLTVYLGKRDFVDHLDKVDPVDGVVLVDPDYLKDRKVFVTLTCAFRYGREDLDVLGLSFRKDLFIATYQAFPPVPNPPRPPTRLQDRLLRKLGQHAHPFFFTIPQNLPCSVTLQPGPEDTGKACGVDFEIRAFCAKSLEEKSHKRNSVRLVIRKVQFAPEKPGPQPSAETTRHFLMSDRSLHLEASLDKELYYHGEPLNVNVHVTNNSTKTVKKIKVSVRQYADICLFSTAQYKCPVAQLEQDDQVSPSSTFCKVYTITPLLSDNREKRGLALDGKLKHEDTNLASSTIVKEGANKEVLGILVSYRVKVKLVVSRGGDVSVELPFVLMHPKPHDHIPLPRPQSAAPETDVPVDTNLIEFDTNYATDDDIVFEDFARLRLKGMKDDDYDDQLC

[2] = target: T1, human sphingosine-1-phosphate receptor 1 (S1P1); assay: Inhibition of cAMP production (HTRF cAMP HiRange), S1P1 CHO-K1 cells; type: cell-based; details: for Emax: CHO-K1, efficacy (SPAN) normalized to fingolimod, read-out: hS1P1 cAMP SPAN
In short: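 CHO-K1 cells stably co-expressing human S1P1 (C-terminal Prolink tag) and EA-β-arrestin2 were grown in AssayComplete Media 6 at 37° C. and 5% CO2, plated, and incubated overnight. Agonist-driven inhibition of intracellular cAMP was read by TR-FRET with the HTRF cAMP HiRange kit on a PheraStar reader. Potency is pEC50, and efficacy (SPAN) is normalized to fingolimod.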
Target sequence in this assay (P21453 whole entry, looked up, the tested form may be a part): as the sequence (P21453 whole entry, looked up, the tested form may be a part) above

[3] = inhibition of cAMP production, S1P1 CHO-K1 cells

hS1P1 B-arrestin2 pEC50 [1]	hS1P1 cAMP pEC50 [2, 3]	Emax [1]	Emax [2]	EC50 ([2]; inhibition of cAMP production, S1P1 CHO-K1 cells, read-out: hS1P1 cAMP pEC50 (converted))	Compound
>5	>6.5				Cc1ccccc1-c1nc(-c2ccc3c(ccn3C(C)C)c2)no1 [Compound 389, 3-(1-isopropyl-1H-indol-5-yl)-5-(o-tolyl)-1,2,4-oxadiazole]
<5	<6.5	> 75%	> 75%		CC(C)n1nnc2cc(-c3nc(-c4ccccn4)no3)ccc21 [Compound 241, 1-(propan-2-yl)-5-[3-(pyridin-2-yl)-1,2,4-oxadiazol-5-yl]-1H-1,2,3-benzotriazole]
<5	<6.5				CN1C(=O)Cc2cc(-c3nc(-c4cccnc4)no3)ccc21 [Compound 377, 1-methyl-5-[3-(pyridin-3-yl)-1,2,4-oxadiazol-5-yl]-2,3-dihydro-1H-indol-2-one]
>5	<6.5				CC1CC(=O)c2ccc(-c3nc(-c4cccnc4)no3)cc2O1 (centres unmarked) [Compound 535, 2-methyl-7-[3-(pyridin-3-yl)-1,2,4-oxadiazol-5-yl]-3,4-dihydro-2H-1-benzopyran-4-one]
>5	>6.5	> 75%	> 75%		COc1ccccc1-c1noc(-c2ccc3c(c2)nnn3C(C)C)n1 [Compound 286, 5-(1-isopropyl-1H-benzo[d][1,2,3]triazol-5-yl)-3-(2-methoxyphenyl)-1,2,4-oxadiazole]
<5	<6.5				COc1cccc(-c2csc(-c3ccc4c(ccn4C(C)C)n3)n2)c1 [Compound 410, 2-(1-isopropylpyrrolo[3,2-b]pyridin-5-yl)-4-(3-methoxyphenyl)thiazole]
>5	>6.5	> 75%	> 75%		Cc1ccccc1-c1noc(-c2ccc3c(c2)nnn3CC(C)(C)O)n1 [Compound 139, 2-methyl-1-{5-[3-(2-methylphenyl)-1,2,4-oxadiazol-5-yl]-1H-1,2,3-benzotriazol-1-yl}propan-2-ol]
<5	<6.5				CCC1(CC)CC(=O)c2cc(-c3nc(-c4ccncc4F)no3)ccc2O1 [Compound 226, 2,2-diethyl-6-(3-(3-fluoropyridin-4-yl)-1,2,4-oxadiazol-5-yl)chroman-4-one]
>5		< 75%	> 75%	> 316 nM	CCn1nnc2cc(-c3noc(-c4ccccc4Br)n3)ccc21 [Compound 2, 5-(2-bromophenyl)-3-(1-ethyl-1H-benzo[d][1,2,3]triazol-5-yl)-1,2,4-oxadiazole]
<5	<6.5				CC(C)Nc1ccc(-c2nnc(-c3ccc4c(c3)ncn4C)o2)cc1C#N [Compound 572, 5-[5-(1-methyl-1H-1,3-benzodiazol-5-yl)-1,3,4-oxadiazol-2-yl]-2-[(propan-2-yl)amino]benzonitrile]
<5	<6.5				CC(C)n1ccc2cc(-c3noc(-c4ccc(F)cc4)n3)ccc21 [Compound 400, 5-(4-fluorophenyl)-3-(1-isopropyl-1H-indol-5-yl)-1,2,4-oxadiazole]
<5	<6.5				Cc1cccc(-c2nc(-c3ccc4c(c3)nnn4C3CCCC3)no2)c1 [Compound 273, 3-(1-cyclopentyl-1H-benzo[d][1,2,3]triazol-5-yl)-5-(m-tolyl)-1,2,4-oxadiazole]
<5	<6.5	< 75%	< 75%		COCC1(COC)CC(=O)c2cc(-c3nc(-c4cccnc4)no3)ccc2O1 [Compound 186, 2,2-bis(methoxymethyl)-6-[3-(pyridin-3-yl)-1,2,4-oxadiazol-5-yl]-3,4-dihydro-2H-1-benzopyran-4-one]
<5	<6.5				COc1ccccc1-c1nnc(-c2ccc3[nH]oc(=O)c3c2)o1 [Compound 339, 5-[5-(2-methoxyphenyl)-1,3,4-oxadiazol-2-yl]-1,3-dihydro-2,1-benzoxazol-3-one]
<5	<6.5	> 75%	> 75%		COc1cccnc1-c1noc(-c2ccc3c(c2)nnn3C(C)C)n1 [Compound 627, 5-(1-isopropyl-1H-benzo[d][1,2,3]triazol-5-yl)-3-(3-methoxypyridin-2-yl)-1,2,4-oxadiazole]
<5	<6.5	> 75%	> 75%		CC(C)n1ccc2cc(-c3nc(-c4ccccc4O)no3)ccc21 [Compound 323, 2-(5-(1-isopropyl-1H-indol-5-yl)-1,2,4-oxadiazol-3-yl)phenol]

hS1P1 B-arrestin2 pEC50 [1]	hS1P1 cAMP pEC50 [2, 3]	Emax [1]	Emax [2]	EC50 ([2]; inhibition of cAMP production, S1P1 CHO-K1 cells, read-out: hS1P1 cAMP pEC50 (converted))	Compound
>5	<6.5				CC1(C)Oc2ccc(-c3nc(-c4cccnc4)no3)cc2C1=O [Compound 481, 2,2-dimethyl-5-[3-(pyridin-3-yl)-1,2,4-oxadiazol-5-yl]-2,3-dihydro-1-benzofuran-3-one]
<5	<6.5	< 75%	< 75%		CC(C)n1nnc2cc(-c3noc(-c4ccc(F)cc4)n3)ccc21 [Compound 255, 5-(4-fluorophenyl)-3-(1-isopropylbenzotriazol-5-yl)-1,2,4-oxadiazole]
>5	>6.5	> 75%	> 75%		CC(C)n1nnc2cc(-c3noc(-c4ccccc4F)n3)ccc21 [Compound 307, 5-(2-fluorophenyl)-3-(1-isopropyl-1H-benzo[d][1,2,3]triazol-5-yl)-1,2,4-oxadiazole]
<5	<6.5	< 75%	< 75%		CC(C)n1nnc2cc(-c3nc(-c4ccc5ccccc5n4)no3)ccc21 [Compound 168, 2-{5-[1-(propan-2-yl)-1H-1,2,3-benzotriazol-5-yl]-1,2,4-oxadiazol-3-yl}quinoline]
>5	>6.5				CCC1(CC)CC(=O)c2cc(-c3nc(-c4ccnc(NC(C)=O)c4)no3)ccc2O1 [Compound 512, N-(4-(5-(2,2-diethyl-4-oxochroman-6-yl)-1,2,4-oxadiazol-3-yl)pyridin-2-yl)acetamide]
<5	<6.5	< 75%	< 75%		COc1cccc(OC)c1-c1noc(-c2ccc3c(c2)nnn3C(C)C)n1 [Compound 251, 3-(2,6-dimethoxyphenyl)-5-(1-isopropylbenzotriazol-5-yl)-1,2,4-oxadiazole]
>5	>6.5	> 75%	> 75%		COc1ccccc1-c1nc(-c2ccc3c(c2)nnn3C(C)C)ns1 [Compound 138, 5-[5-(2-methoxyphenyl)-1,2,4-thiadiazol-3-yl]-1-(propan-2-yl)-1H-1,2,3-benzotriazole]
>5	>6.5				CC(C)n1ccc2cc(-c3noc(-c4ccccc4Br)n3)ccc21 [Compound 388, 5-(2-bromophenyl)-3-(1-isopropyl-1H-indol-5-yl)-1,2,4-oxadiazole]
>5	>6.5	> 75%	< 75%		CNc1ccccc1-c1nc(-c2ccc3c(c2)nnn3C(C)C)no1 [Compound 599, N-methyl-2-{3-[1-(propan-2-yl)-1H-1,2,3-benzotriazol-5-yl]-1,2,4-oxadiazol-5-yl}aniline]
>5	>6.5				COc1ccccc1-c1noc(-c2ccc3c(cnn3C(C)C)c2)n1 [Compound 370, 5-(1-isopropyl-1H-indazol-5-yl)-3-(2-methoxyphenyl)-1,2,4-oxadiazole]
<5	<6.5	< 75%	> 75%		CCC1(CC)CC(=O)c2cc(-c3nc(-c4cccc(OC)c4)no3)ccc2O1 [Compound 71, 2,2-diethyl-6-(3-(3-methoxyphenyl)-1,2,4-oxadiazol-5-yl)chroman-4-one]
>5	>6.5	> 75%	> 75%		Cc1ccncc1-c1noc(-c2ccc3c(c2)nnn3C(C)C)n1 [Compound 101, 5-[3-(4-methylpyridin-3-yl)-1,2,4-oxadiazol-5-yl]-1-(propan-2-yl)-1H-1,2,3-benzotriazole]
>5	>6.5	> 75%	> 75%		CC(C)n1nnc2cc(-c3nc(-c4ccccc4Br)no3)ccc21 [Compound 282, 5-[3-(2-bromophenyl)-1,2,4-oxadiazol-5-yl]-1-(propan-2-yl)-1H-1,2,3-benzotriazole]
<5	<6.5	< 75%	< 75%		CCC1(CC)CC(=O)c2cc(-c3nc(-c4ccc(O)nc4)no3)ccc2O1 [Compound 105, 2,2-diethyl-6-[3-(6-hydroxy-3-pyridyl)-1,2,4-oxadiazol-5-yl]chroman-4-one]
>5	>6.5	> 75%	> 75%		CC(C)n1ccc2cc(-c3nc(-c4ccccc4Br)no3)ccc21 [Compound 322, 3-(2-bromophenyl)-5-(1-isopropyl-1H-indol-5-yl)-1,2,4-oxadiazole]

— patent US11912693B2, “Compounds for modulating S1P1 activity and methods of using the same” (TREVENA, INC., priority 2017, dated 2024)
